Assays:
human spermatozoa [1] = experiment: viability fold change, 1 - (PI-positive fraction / DMSO median); higher = more of the measured sperm population than DMSO, for viability, fewer PI-positive (dead) cells than DMSO; settings: incubation time: 3h, non-capacitating
human spermatozoa [2] = experiment: progressively motile sperm, percent change vs DMSO (non-capacitating); higher = more of the measured sperm population than DMSO, for viability, fewer PI-positive (dead) cells than DMSO; extreme values may be limits of the assay
HepG2 = HepG2 toxicity (resazurin), effect normalised to DMSO (DMSO = 0); higher = more features changed / larger toxic effect; settings: incubation time: 70h incubation
human spermatozoa [3] = experiment: total motile sperm, percent change vs DMSO (non-capacitating); higher = more of the measured sperm population than DMSO, for viability, fewer PI-positive (dead) cells than DMSO
HeLa [4] = experiment: Cell Painting percent induction (share of features beyond 2 z-scores vs DMSO); higher = more features changed / larger toxic effect; extreme values may be limits of the assay; settings: incubation time: 24h incubation
HeLa [5] = experiment: HeLa toxicity: nuclei-count effect normalised to DMSO (DMSO = 0); higher = more features changed / larger toxic effect; settings: incubation time: 24h incubation
human spermatozoa [6] = experiment: hyperactivated motile sperm, percent change vs DMSO (capacitating); higher = more of the measured sperm population than DMSO, for viability, fewer PI-positive (dead) cells than DMSO; settings: incubation time: 30min incubation
human spermatozoa [7] = experiment: progressively motile sperm, percent change vs DMSO (capacitating); higher = more of the measured sperm population than DMSO, for viability, fewer PI-positive (dead) cells than DMSO; settings: incubation time: 30min incubation
human spermatozoa [8] = experiment: change in acrosome-reacted (PNA+) sperm vs DMSO, no agonist (capacitating); higher = more of the measured sperm population than DMSO, for viability, fewer PI-positive (dead) cells than DMSO; settings: incubation time: 3h
human spermatozoa [9] = experiment: acrosome-reacted (PNA+) sperm after agonist cocktail, percent change vs DMSO (capacitating); higher = more of the measured sperm population than DMSO, for viability, fewer PI-positive (dead) cells than DMSO; settings: incubation time: 3h, capacitating + agonist cocktail 1h
[10] = incubation time: 10min incubation, 9.99 µM
[11] = incubation time: 10min incubation, 29.9 µM
[12] = incubation time: 3h incubation, 9.99 µM
[13] = incubation time: 3h incubation, 29.9 µM
[14] = incubation time: 6h incubation, 9.99 µM
[15] = incubation time: 6h incubation, 29.9 µM
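Throughout, for progressively motile sperm, percent change vs DMSO (non-capacitating): pooled live human sperm from at least 3 donors, tracked by automated microscopy in 0.5 s time-lapse movies, compounds at 10 and 30 µM, versus median of 16 DMSO wells per plate.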
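Throughout, for total motile sperm, percent change vs DMSO (non-capacitating): sperm pooled from at least 3 donors, tracked in 0.5 s time-lapse movies by automated microscopy after 10 min, 3 h or 6 h with compound at 10 or 30 µM.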

SMILES | viability fold change (human spermatozoa [1]; 9.99 µM) | viability fold change (human spermatozoa [1]; 29.9 µM) | progressively motile sperm (human spermatozoa [2]; [10]) [%] | progressively motile sperm (human spermatozoa [2]; [11]) [%] | progressively motile sperm (human spermatozoa [2]; [12]) [%] | progressively motile sperm (human spermatozoa [2]; [13]) [%] | progressively motile sperm (human spermatozoa [2]; [14]) [%] | progressively motile sperm (human spermatozoa [2]; [15]) [%] | HepG2 toxicity (HepG2; 10 µM) [%] | HepG2 toxicity (HepG2; 30 µM) [%] | total motile sperm (human spermatozoa [3]; [10]) [%] | total motile sperm (human spermatozoa [3]; [11]) [%] | total motile sperm (human spermatozoa [3]; [12]) [%] | total motile sperm (human spermatozoa [3]; [13]) [%] | total motile sperm (human spermatozoa [3]; [14]) [%] | total motile sperm (human spermatozoa [3]; [15]) [%] | Cell Painting percent induction (HeLa [4]; 9.99 µM) [%] | Cell Painting percent induction (HeLa [4]; 29.9 µM) [%] | HeLa toxicity: nuclei-count effect normalised (HeLa [5]; 9.99 µM) [%] | HeLa toxicity: nuclei-count effect normalised (HeLa [5]; 29.9 µM) [%] | hyperactivated motile sperm (human spermatozoa [6]; 9.99 µM) [%] | hyperactivated motile sperm (human spermatozoa [6]; 29.9 µM) [%] | progressively motile sperm (human spermatozoa [7]; 9.99 µM) [%] | progressively motile sperm (human spermatozoa [7]; 29.9 µM) [%] | change in acrosome-reacted (human spermatozoa [8]; 9.99 µM) [%] | change in acrosome-reacted (human spermatozoa [8]; 29.9 µM) [%] | acrosome-reacted (human spermatozoa [9]; 9.99 µM) [%] | acrosome-reacted (human spermatozoa [9]; 29.9 µM) [%]
N=C(N)Nc1ccc(C(=O)Oc2ccc3cc(C(=N)N)ccc3c2)cc1 [Nafamostat] | -0.884 | -0.901 | -2.19 | 0.269 | -19.4 | -27.7 | -23.3 | -29.6 | -7.68 | 4.06 | -0.692 | 2.17 | -4.33 | -1.82 | -5.56 | -0.0709 | 0 | 0 | 2.4 | 1.27 | 5.36 | 1.98 | 3.69 | 9.5 | 0.86 | 1.56 | 5.51 | 15.9
O=C(Nc1ccc([N+](=O)[O-])cc1Cl)c1cc(Cl)ccc1O [Niclosamide] | 0.501 | 0.431 | -28.1 | -27.6 | -26.2 | -30.1 | -18.2 | -26.8 | -3.07 | 1.35 | -2.96 | -1.25 | -8.32 | -3.27 | -6.27 | -2.49 | 8.47 | 7.82 | 31.1 | 32.3 | -59.6 | -70.1 | -1.8 | -5.95 | 1.03 | 1.07 | 7.25 | 4.65
O=C(O)c1cccnc1Nc1cccc(C(F)(F)F)c1 [Niflumic acid] | -1.06 | -0.652 | 9.44 | 5.93 | -5.45 | 4.68 | 7.86 | -5.16 | 4.41 | -6.15 | 2.12 | 1.32 | -5.94 | -1.61 | -3.08 | -6.87 | 0 | 0 | 2.94 | -2.27 | 19.3 | -6.47 | 5.54 | 7.87 | 0.714 | 0.944 | 4.85 | -0.457
COC(=O)[C@]1(C)CC[C@]2(C)CC[C@]3(C)C4=CC=C5C(=CC(=O)C(O)=C5C)[C@]4(C)CC[C@@]3(C)[C@@H]2C1 [Pristimerin] | -0.933 | -1.2 | -86.8 | -99.9 | -100 | -100 | -100 | -99.9 | 103 | 103 | -50.2 | -83.1 | -90.8 | -88.7 | -92.1 | -85.4 | 46.9 | 38.9 | 98.7 | 98.7 | -72.5 | -73.6 | -74.5 | -96.6 | 3.63 | 6.18 | -52.1 | -57.5
CCOCc1nc2c(N)nc3ccccc3c2n1CC(C)(C)O [Resiquimod] | -0.843 | -0.207 | -38.4 | -75.7 | -66.1 | -88 | -66.2 | -83.9 | 12.3 | -1.68 | -0.764 | -12.1 | -11.9 | -23.9 | -12.4 | -21.3 | 0 | 0 | 1.14 | 0.735 | -81.8 | -84.5 | -29.5 | -59.7 | 0.989 | 0.739 | 2.21 | -0.339
[O-][S+](c1ccccc1)c1ccc2nnnn2n1 (configuration not stated) [Ro 106-9920] | -0.184 | -0.13 | -34.9 | -68.2 | -100 | -99.9 | -100 | -100 | 103 | 103 | -8.15 | -30.9 | -92.3 | -89.9 | -92.2 | -89.8 | 0.684 | 42.4 | 43.7 | 96.9 | -3.35 | -67.1 | -9.75 | -78.3 | 8.05 | 18.3 | 149 | 142
[O]=[V]([O-])([O-])[O-] [Sodium orthovanadate] | -0.276 | -0.0929 | 7.34 | 4.35 | 13.8 | 7.93 | 20 | 10.3 | -3.1 | 8.27 | 2.91 | 0.876 | 8.66 | -0.441 | 8.42 | -0.812 | 0 | 0 | -6.61 | -4.07 | 14.9 | 5.6 | 5.23 | 3.21 | 0.239 | 0.284 | 9.33 | 1.67
CCc1c(C)nc(SCC(=O)Nc2nc(-c3ccc(OC)cc3)cs2)[nH]c1=O [T16Ainh-A01] | -0.653 | -0.578 | 5.37 | 6.45 | 1.94 | 14.7 | 4.81 | 19.4 | -6.4 | -1.86 | 2.04 | 2.24 | -4.04 | 0.707 | -7.94 | -0.932 | 0 | 0.108 | 6.48 | -5.14 | -2.36 | -0.263 | 2.99 | 14.4 | 0.555 | 1.02 | 8.11 | 6.61
CNC(=O)c1ccccc1Nc1nc(Nc2ccc(N3CCOCC3)cc2OC)ncc1Cl [TAE226] | -0.257 | 0.581 | 30.1 | 34.5 | 9.37 | 3.96 | 25.7 | 23.8 | 92.5 | 99.8 | 0.613 | 1.31 | -18.9 | -22.2 | -16.2 | -14.9 | 1.84 | 21.1 | 45.5 | 83.4 | 137 | 34.1 | -5.22 | -5.06 | 1.37 | 1.97 | 10.7 | 31.6

Reference: the supplement of paper PMC10878532, “Sperm Toolbox—A selection of small molecules to study human spermatozoa” (PLOS ONE, 2024)
